Assay [1] concerns the target Leukocyte elastase (Homo sapiens). Briefly: Inhibition constant (Ki) against human leukocyte elastase.
For assay [2], the target named is Trypsin (Sus scrofa, UniProt P00761). Briefly: Inhibition constant (Ki) against trypsin enzyme for the conversion of water-soluble compound to fluorescent oil-soluble compound.
In assay [3] the target is Leukocyte elastase (Homo sapiens). In words: Inhibition constant (Ki) when mixed with p-nitroanilide against human leukocyte elastase for the conversion of water-soluble compound to fluorescent oil-soluble compound.

Trypsin, sequence (P00761 whole entry): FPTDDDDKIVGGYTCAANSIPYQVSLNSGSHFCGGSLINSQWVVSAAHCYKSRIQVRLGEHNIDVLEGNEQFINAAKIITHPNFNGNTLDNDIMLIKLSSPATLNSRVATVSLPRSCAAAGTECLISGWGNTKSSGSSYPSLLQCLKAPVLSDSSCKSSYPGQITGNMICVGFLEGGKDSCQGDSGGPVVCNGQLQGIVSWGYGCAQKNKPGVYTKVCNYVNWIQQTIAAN

Consider `CC(NC(=O)[C@H](C)NC(=O)c1cccc2c1Oc1c(C(=O)NC(C)C(=O)N[C@@H](C)C(=O)O)cccc1C2(C)C)C(=O)O` (single isomer, unassigned), for which, in assay [1], the Ki is 248 µM.

In the case of `O=C1C=CC(=O)N1c1ccccc1`, in assay [2], the Ki was roughly 800 µM.

Regarding `CC(NC(=O)[C@H](C)NC(=O)c1cccc2c1Oc1c(C(=O)NC(C(=O)O)C(C)C)cccc1C2(C)C)C(=O)O` (single isomer, unassigned), the Ki in assay [1] is 86 µM; in assay [3] it was 0.128 µM.

As to `CC(C)C(NC(=O)c1cccc2c1Oc1c(C(=O)N[C@H](C(=O)O)C(C)C)cccc1C2(C)C)C(=O)O` (single isomer, unassigned), the Ki in assay [1] was 515 µM.
